Measurements published in article PMC5861220, “The Cytochrome P450-Mediated Metabolism Alternation of Four Effective Lignans From Schisandra chinensis in Carbon Tetrachloride-Intoxicated Rats and Patients With Advanced Hepatocellular Carcinoma” (Frontiers in Pharmacology, 2018).

Tests used:
Format in all cases: in vitro ADME
[1] = system: CYP3A4/5; test: Lignan metabolism in human liver microsomes with ketoconazole; conditions: 5 μM
Method: (§1) The CYP450s involved in the metabolism of schisandrin, schisantherin A, deoxyshisandrin and γ-schisandrin in rat or human liver microsomes were confirmed by comparison of the metabolism ratio before and after the addition of selective inhibitors to CYP450 isozymes. […] The supernate was injected to HPLC-MS for analysis of the four lignans.

[2] = target: T1, CYP1A2 (Rattus norvegicus, UniProt P04799); test: Lignan metabolism in rat liver microsomes with furafylline; conditions: 5 μM, + Furafylline 50 μM (CYP1A2)
T1 sequence (P04799 1-513): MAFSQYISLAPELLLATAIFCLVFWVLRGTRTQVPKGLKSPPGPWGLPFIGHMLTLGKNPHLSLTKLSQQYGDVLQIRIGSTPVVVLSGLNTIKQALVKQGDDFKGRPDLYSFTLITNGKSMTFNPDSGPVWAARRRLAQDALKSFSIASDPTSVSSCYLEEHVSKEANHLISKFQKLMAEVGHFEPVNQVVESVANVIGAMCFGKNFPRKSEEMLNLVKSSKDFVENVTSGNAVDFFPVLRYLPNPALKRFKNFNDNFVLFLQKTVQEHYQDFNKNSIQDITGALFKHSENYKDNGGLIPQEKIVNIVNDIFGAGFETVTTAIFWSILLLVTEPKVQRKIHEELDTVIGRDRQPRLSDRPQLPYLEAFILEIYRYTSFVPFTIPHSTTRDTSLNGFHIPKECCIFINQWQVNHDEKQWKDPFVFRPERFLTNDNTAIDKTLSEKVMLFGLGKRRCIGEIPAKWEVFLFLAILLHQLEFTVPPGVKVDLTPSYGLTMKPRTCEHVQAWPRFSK
Method: as §1

[3] = Identification of CYP450 isozymes in lignan metabolism, rat liver microsomes (no inhibitor / overall); conditions: for Metabolism rate: rat liver microsomes 1 mg/mL, 5 μM, Control (no inhibitor); for CYP450 isozymes participated in the metabolism (≥20% inhibition): rat liver microsomes incubation with selective inhibitors
Method: as §1

[4] = system: CYP3A; test: Lignan metabolism in rat liver microsomes with ketoconazole; conditions: 5 μM, + Ketoconazole 100 μM (CYP3A)
Method: as §1

[5] = system: P-glycoprotein (P-gp); test: P-gp substrate assessment from Caco-2 transport (Papp and ER); conditions: Caco-2 cell monolayer, 5, 10 and 50 μM
Method: Caco-2 cell (passage 38) was used in the transport experiments. Cells were seeded on polycarbonate filters (12 mm diameter, pore size […]) at 1 × 10^5/cm^2. The cell monolayer was formed 21 days post seeding when the transepithelial electrical resistance (TEER) was above 1,000 Ω• cm^2. Three concentration levels (5, 10, and 50 μM) were set for the four schisandra lignans in the study. After preincubation for 1 h at 37°C, the solution of the four lignans was respectively added to the apical (0.4 mL) or basolateral (0.6 mL) chamber for absorptive (AP → BL) and secretive (BL → AP) permeability test. At the specified timepoints (0.5, 1, 1.5 and 2 h), 50 μL samples (n = 3) were withdrawn from receiver chamber, and meanwhile, 50 μL fresh buffer was added. The four lignans were determined by HPLC-MS method.
The apparent permeability coefficient (Papp) in the Caco-2 cell was calculated by the formula Papp = (ΔQ/Δt)/AC0, where ΔQ/Δt is the transport rate (nmol/s), which remained approximately constant in time, A is the well membrane area (0.6 cm^2), and C0 is the initial concentration of the four lignans (μM). The efflux rate (ER) was calculated by the formula ER = Papp (BL → AP)/Papp(AP → BL).

Structure (SMILES) | Metabolism rate [1] [nmol/min/mg] | Metabolism rate [2] [nmol/min/mg] | Metabolism rate [3] [nmol/min/mg] | CYP450 isozymes participated in the metabolism (≥20% inhibition) [3] | Metabolism rate [4] [nmol/min/mg] | P-glycoprotein (P-gp) substrate classification according to Papp and ER [5]
COc1cc2c(c(OC)c1OC)-c1c(cc(OC)c(OC)c1OC)C[C@](C)(O)[C@@H](C)C2 [Schisandrin, schisandrin] | 176.7 ± 27.6 | 215.1 ± 26.5 | 233.3 ± 35.6 | CYP2C6/11, CYP2E1, and CYP3A | 172.9 ± 8.6 | 
COc1cc2c(c(OC)c1OC)-c1c(cc(OC)c(OC)c1OC)C[C@H](C)[C@@H](C)C2 [Deoxyshisandrin, deoxyshisandrin] | 38.2 ± 4.3 | 85.2 ± 7.6 | 87.5 ± 7.8 | CYP2C11, CYP2D2, CYP2E1, and CYP3A | 20.0 ± 1.6 | some efflux trend
